The experiment relates to Omicron (BA.1) SARS-CoV-2. Put plainly: Antiviral activity, plaque reduction assay on Vero E6 cells. The settings on record: for pEC50: Severe acute respiratory syndrome coronavirus 2, Vero C1008, 72 h, read-out: EC50, effective concentration inhibiting 50% of the virus. The experiment is classed as cell-based. (Plaques are areas of infected cells; plaque reduction assays count them against a control.)

pEC50: −log10 of the molar value. Entries after “also recorded” stand apart in the source; their conditions may differ.

With `OC1CCCN(C2CCN(Cc3ncc[nH]3)CC2)C1` (centres unmarked) [Compound 21256088], the pEC50 was below 4.00.

Regarding `Cc1cc2c(cc1CN1CC(CO)C(CN3CCCCCC3)C1)OCCO2` (centres unmarked) [Compound 194], the pEC50 was 4.54.

Turning to `Cc1cc2c(cc1CN1CC(CO)C(CN3CCN(C)CC3)C1)OCCO2` (centres unmarked) [Compound 782], the pEC50 was 5.39.

In the case of `Cc1nc(CN)cc(N2CCC(C(O)c3nccn3C)CC2)n1` (centres unmarked) [Compound 32807865], the pEC50 is below 4.00.

As for `OCC1CN(Cc2cc3c(cc2Cl)OCO3)CC1CN1CCCCCC1` (centres unmarked) [Compound 269], the “antiviral activity against SARS-CoV-2 (in words)” value (from here on “antiviral activity”) is “retained activity against the wild-type virus albeit with reduced potency” and the pEC50 was 4.27.

Turning to `NCCc1ccc(CN2CCC(O)(c3cccc(C(F)(F)F)c3)CC2)cc1` [Compound 188], the pEC50 is 4.77.

In the case of `Cc1cc2c(cc1CN1CC(CO)C(CN3CCOCC3)C1)OCCO2` (centres unmarked) [Compound 325], the “antiviral activity” value was “did not inhibit wild-type virus; also recorded: loss of antiviral activity against SARS-CoV-2”.

For the compound `CN(C)CCN(C)CC1CN(Cc2ccc3c(c2)OCCO3)CC1CO` (centres unmarked) [Compound 570], the pEC50 is 4.41.

In the case of `Cc1cc2c(cc1CN1CC(CO)C(CN3CCCC3)C1)OCO2` (centres unmarked) [Compound 789], the pEC50 is 4.36.

With `OC1CN(Cc2cccc3cc[nH]c23)CCN(c2ccncc2)C1` (centres unmarked) [Compound 229], the pEC50 was 4.57.

As to `OCC1CN(Cc2cc3c(cc2Cl)OCO3)CC1CN1CCOCC1` (centres unmarked) [Compound 178], the “antiviral activity” value was “decrease in potency” and the pEC50 is 3.99.

On to `Clc1ccc2c(N3CCN(CCCN4CCN(c5ccnc6cc(Cl)ccc56)CC4)CC3)ccnc2c1` [piperaquine, reference compound], for which the pEC50 is 4.94.

Source of the values: publication PMC11323243, “Novel Inhibitors of SARS-CoV-2 RNA Identified through Virtual Screening” (Journal of Chemical Information and Modeling, 2024).
